Square brackets hold non-standard residues; d marks the D form. Ends that are not written are not given here. Peptide text beside a SMILES is read from it. Phe(3-Br) = N[C@@H](Cc1cccc(Br)c1)C(=O)O; Phe(4-Br) = N[C@@H](Cc1ccc(Br)cc1)C(=O)O; Phe(3-I) = N[C@@H](Cc1cccc(I)c1)C(=O)O; 2Nal = N[C@@H](Cc1ccc2ccccc2c1)C(=O)O; Dmt = Cc1cc(O)cc(C)c1C[C@H](N)C(=O)O; β3hF = N[C@H](CC(=O)O)Cc1ccccc1; Cha = N[C@@H](CC1CCCCC1)C(=O)O; Phe∗ = not defined here; Trp∗ = not defined here
Assay: Stability and degradability of biogels in human plasma (Example 8)
Type: in vitro ADME
Conditions: human plasma, 37° C.
Experimental: After centrifugation at 14 000 rpm for 15 minutes, 100 μL supernatant was diluted with 100 μL milliQ water in the injection vial. Injection samples were vortexed for 5 seconds and were analyzed by HPLC. […] Calculations were performed using Microsoft® Office Professional 2010 Excel.

Row | Compound | Extent of degradation
1 | Cc1cc(O)cc(C)c1C[C@H](N)C(=O)N[C@H](CCCNC(=N)N)C(=O)N[C@@H](Cc1ccccc1)C(=O)N[C@@H](Cc1ccccc1)C(=O)N[C@@H](CCC(N)=O)C(=O)N[C@H](CC(=O)N[C@@H](Cc1ccccc1)C(=O)N[C@@H](CCC(N)=O)C(=O)N[C@@H](Cc1ccccc1)C(=O)N[C@@H](CCCCN)C(N)=O)Cc1ccccc1 [CM-137, Dmt-OArg-Phe-Phe-Gln-J3;s-homo-Phe-Phe-Gln-Phe*-Lys-NH2] (H-[Dmt][dR]FFQ[β3hF]FQFK-NH2; N-terminus assumed) | the degradation stops after the cleavage of the first Gin

Same assay, conditions: human, plasma; 37° C., in solution, 14 μM

Row | Compound | half-life at 14 μM [h]
2 | Cc1cc(O)cc(C)c1C[C@H](N)C(=O)N[C@H](CCCCN)C(=O)N[C@@H](Cc1ccccc1)C(=O)N[C@@H](Cc1ccccc1)C(=O)N[C@@H](CCC(N)=O)C(=O)N[C@@H](Cc1ccccc1)C(=O)N[C@@H](CCC(N)=O)C(=O)N[C@@H](Cc1ccccc1)C(=O)N[C@@H](CCCCN)C(N)=O [CM-136, Dmt-OLy:s-Phe-Phe-Gln-Phe*-Gln-Phe*-Lys-NH2] (H-[Dmt][dK]FFQFQFK-NH2) | ~0.183
3 | Cc1cc(O)cc(C)c1C[C@H](N)C(=O)N[C@H](CCCNC(=N)N)C(=O)N[C@@H](Cc1ccccc1)C(=O)N[C@@H](Cc1ccccc1)C(=O)N[C@@H](CCC(N)=O)C(=O)N[C@H](CC(=O)N[C@@H](Cc1ccccc1)C(=O)N[C@@H](CCC(N)=O)C(=O)N[C@@H](Cc1ccccc1)C(=O)N[C@@H](CCCCN)C(N)=O)Cc1ccccc1 [CM-137, Dmt-OArg-Phe-Phe-Gln-J3;s-homo-Phe-Phe-Gln-Phe*-Lys-NH2] (H-[Dmt][dR]FFQ[β3hF]FQFK-NH2; N-terminus assumed) | ~2.05

Assay: Peptide gelation (tilted tube / inverted vial test, minimum gelation concentration)
Type: physicochemical
Conditions: not given
Experimental: The peptide gelation occurred by dissolving the TFA salt of the hexapeptide (2 mg) in 100 μL of PBS solution (pH 7.4) or physiological saline solution (0.9% NaCl).
Both peptides 2 and 4 (Table 1) gave a transparent gel in the same conditions (PBS 10 mM at pH 7.4 with a minimum gelation concentration of 24 mM; 2% w/v). To evaluate the mechanical properties of these hydrogels in a more quantitative manner, rheological experiments were performed. The viscoelastic properties of the peptide hydrogels were measured by dynamic rheometry at 37° C. This technique allowed to measure the storage modulus G′ (corresponding to the material's stiffness or rigidity), loss modulus G″ (corresponding to the viscous properties of the material) and loss factor tan (o) (ratio of G″ over G′). According to the Winter-Chambon criterion, a material reaches gelation in rheological terms if the phase angle o gets frequency-independent (F. Chambon et al., 1987 and H. Winter et al., 1987).
The peptide gelation occurred by dissolving the TFA salt of the peptide in 100 μL of PBS solution or physiological saline solution (0.9% NaCl) (pH 7.4).
The peptide gelation occurs by dissolving the TFA salt of the hydrogelator (1 or 2 mg) in 100 μL of aqueous media, PBS solution (pH 7.4) or physiological saline solution (0.9% NaCl). After successive vortexing and sonication, the gel is left to rest overnight at room temperature.
The hydrogelation was realized under physiologically relevant conditions, namely via the addition of phosphate-buffered saline (PBS) or sterile physiological saline solution (0.9% NaCl). The needed amount of hydrogelator was weighed in an Eppendorf® and solubilized by the addition of the above solutions. After vortex and sonication steps, the resulting solution was left at room temperature until gelation occurred. The gelation was qualitatively verified by the inverted vial test (if no gravitational flow was visible the gelation was considered successful). It can be noticed that all peptide hydrogelators depicted formed gels in PBS and saline solution at a concentration of 1 to 2% w/v.

Row | Compound | Biogel formation
4 | SEQ ID NO: 56, modified by the inclusion of an ester as linker: biogel MOJ-02 modified by an ester linker (spacer) between the hydrogelator part and the biological active ingredient (Y[dR]FFQ[β3hF]FQFK-NH2; not fully specified (residue 9); also: ester linker between hydrogelator part and active ingredient, position not given here) | able to form a biogel spontaneously

Same assay, conditions: 2% w/v, PBS 10 mM, pH 7.4

Row | Compound | Gelation behaviour
5 | Ac-Phe-Glu-Phe*-Gln-Phe-Lys-NH2 [peptide 3] | macroscopic aggregation
6 | H-Leu-Glu-Leu-Gln-Leu-Lys-NH2 (H-LELQLK-NH2) [peptide 6] | remained in solution
7 | NCCCC[C@H](NC(=O)[C@H](CC1CCCCC1)NC(=O)[C@H](CCC(N)=O)NC(=O)[C@H](CC1CCCCC1)NC(=O)[C@H](CCC(=O)O)NC(=O)[C@@H](N)CC1CCCCC1)C(N)=O [compound 9, H-Cha-Glu-Cha-Gln-Cha-Lys-NH2] (H-[Cha]E[Cha]Q[Cha]K-NH2) | formed gels
8 | H-AEAQAK-NH2 [compound 8, H-Ala-Glu-Ala-Gln-Ala-Lys-NH2] | remained in solution
9 | H-VEVQVK-NH2 [compound 7, H-Val-Glu-Val-Gln-Val-Lys-NH2] | remained in solution
10 | H-IEIQIK-NH2 [compound 5, H-Ile-Glu-Ile-Gln-Ile-Lys-NH2] | formed gels

Same assay, conditions: in PBS; '/' = no gel

Row | Compound | Minimum gelation concentration (w/v % in PBS)
11 | NCCCC[C@H](NC(=O)[C@H](Cc1cccc(I)c1)NC(=O)[C@H](CCC(N)=O)NC(=O)[C@H](Cc1ccccc1)NC(=O)[C@H](CCC(N)=O)NC(=O)[C@@H](N)Cc1ccccc1)C(N)=O [compound 36, H-Phe-Gln-Phe-Gln-Phe(3I)-Lys-NH2] (H-FQFQ[Phe(3-I)]K-NH2) | 1-2 w/v %
12 | H-Phe-Glu-Phe*-Gln-Trp-Lys-NH2 (H-FE[Phe∗]QWK-NH2; not fully specified; reading uncertain) [compound 15] | 2 w/v %
13 | H-DLys-DPhe-DGln-DPhe*-DGlu-DPhe-NH2 (H-[dK][dF][dQ]F[dE][dF]-NH2; not fully specified (residue 4)) [compound 19] | 2 w/v %
14 | NCCCC[C@H](NC(=O)[C@H](Cc1cccc(Br)c1)NC(=O)[C@H](CCC(N)=O)NC(=O)[C@H](Cc1ccccc1)NC(=O)[C@H](CCC(N)=O)NC(=O)[C@@H](N)Cc1ccccc1)C(N)=O [compound 31, H-Phe-Gln-Phe-Gln-Phe(3Br)-Lys-NH2] (H-FQFQ[Phe(3-Br)]K-NH2) | 1-2 w/v %
15 | NCCCC[C@H](NC(=O)[C@H](CC1CCCCC1)NC(=O)[C@H](CCC(N)=O)NC(=O)[C@H](CC1CCCCC1)NC(=O)[C@H](CCC(=O)O)NC(=O)[C@@H](N)CC1CCCCC1)C(N)=O [compound 9, H-Cha-Glu-Cha-Gln-Cha-Lys-NH2] (H-[Cha]E[Cha]Q[Cha]K-NH2) | 2 w/v %
16 | NCCCC[C@H](NC(=O)[C@H](Cc1ccccc1)NC(=O)[C@H](CCC(N)=O)NC(=O)[C@H](Cc1cccc(Br)c1)NC(=O)[C@H](CCC(N)=O)NC(=O)[C@@H](N)Cc1ccccc1)C(N)=O [compound 34, H-Phe-Gln-Phe(3Br)-Gln-Phe-Lys-NH2] (H-FQ[Phe(3-Br)]QFK-NH2) | 1-2 w/v %
17 | NCCCC[C@H](NC(=O)[C@H](Cc1ccc2ccccc2c1)NC(=O)[C@H](CCC(N)=O)NC(=O)[C@H](Cc1ccc2ccccc2c1)NC(=O)[C@H](CCC(=O)O)NC(=O)[C@@H](N)Cc1ccc2ccccc2c1)C(N)=O [compound 13, H-(2-Nal)-Glu-(2-Nal)-Gln-(2-Nal)-Lys-NH2] (H-[2Nal]E[2Nal]Q[2Nal]K-NH2) | 2 w/v %
18 | H-Phe-Glu-Phe*-Asn-Phe-Lys-OH (H-FE[Phe∗]NFK-OH; not fully specified; reading uncertain) [compound 10] | 1 w/v %
19 | H-Phe-Glu-Phe*-Asn-Phe-Lys-NH2 (H-FE[Phe∗]NFK-NH2; not fully specified; reading uncertain) [compound 11] | 1 w/v %
20 | H-Phe-Glu-Trp*-Gln-Phe-Lys-NH2 (H-FE[Trp∗]QFK-NH2; not fully specified; reading uncertain) [compound 21] | 2 w/v %
21 | NCCCC[C@H](NC(=O)[C@H](Cc1cccc(Br)c1)NC(=O)[C@H](CCC(N)=O)NC(=O)[C@H](Cc1cccc(Br)c1)NC(=O)[C@H](CCC(N)=O)NC(=O)[C@@H](N)Cc1ccccc1)C(N)=O [compound 32, H-Phe-Gln-Phe(3Br)-Gln-Phe(3Br)-Lys-NH2] (H-FQ[Phe(3-Br)]Q[Phe(3-Br)]K-NH2) | 1-2 w/v %
22 | H-DLys-DPhe-DAsn-DPhe*-DGlu-DPhe-NH2 (H-[dK][dF][dN]F[dE][dF]-NH2; not fully specified (residue 4)) [compound 22] | 2 w/v %
23 | H-DPhe-DGlu-DPhe*-DGln-DPhe-DLys-NH2 (H-[dF][dE]F[dQ][dF][dK]-NH2; not fully specified (residue 3)) [compound 17] | 2 w/v %
24 | NCCCC[C@H](NC(=O)[C@H](Cc1cccc(I)c1)NC(=O)[C@H](CCC(N)=O)NC(=O)[C@H](Cc1cccc(I)c1)NC(=O)[C@H](CCC(N)=O)NC(=O)[C@@H](N)Cc1ccccc1)C(N)=O [compound 37, H-Phe-Gln-Phe(3I)-Gln-Phe(3I)-Lys-NH2] (H-FQ[Phe(3-I)]Q[Phe(3-I)]K-NH2) | 1-2 w/v %
25 | H-DLys-DPhe-DGlu-DPhe*-DGlu-DPhe-NH2 (H-[dK][dF][dE]F[dE][dF]-NH2; not fully specified (residue 4)) [compound 23] | 2 w/v %
26 | H-Phe-Glu-Phe*-Lys-Phe-Ser-NH2 (H-FE[Phe∗]KFS-NH2; not fully specified; reading uncertain) [compound 20] | 1 w/v %
27 | H-IEIQIK-NH2 [compound 5, H-Ile-Glu-Ile-Gln-Ile-Lys-NH2] | 2 w/v %
28 | H-Trp-Glu-Phe*-Gln-Phe-Lys-NH2 (H-WE[Phe∗]QFK-NH2; not fully specified; reading uncertain) [compound 14] | 2 w/v %
29 | H-DPhe-DGlu-DPhe*-DGln-DPhe-DLys-OH (H-[dF][dE]F[dQ][dF][dK]-OH; not fully specified (residue 3)) [compound 25] | 1 w/v %
30 | NCCCC[C@H](NC(=O)[C@H](Cc1ccc(Br)cc1)NC(=O)[C@H](CCC(N)=O)NC(=O)[C@H](Cc1ccc(Br)cc1)NC(=O)[C@H](CCC(N)=O)NC(=O)[C@@H](N)Cc1ccc(Br)cc1)C(N)=O [compound 35, H-Phe(4Br)-Gln-Phe(4Br)-Gln-Phe(4Br)-Lys-NH2] (H-[Phe(4-Br)]Q[Phe(4-Br)]Q[Phe(4-Br)]K-NH2) | 1-2 w/v %
31 | H-Lys-Phe-Gln-Phe*-Glu-Phe-OH (H-KFQ[Phe∗]EF-OH; not fully specified; reading uncertain) [compound 26] | 2 w/v %

Source: patent US12383628B2 (priority 2016, dated 2025)
